pIC50: −log10 of the molar value.
Key:
Assay type in all cases: biochemical
GST-tagged SIK2 = GST-tagged SIK2 (Homo sapiens (Human), UniProt Q9H0K1); experiment: SIK2 inhibition test (ADP-Glo Max Assay); details: enzyme 3 nM, AMARA Peptide 200 μM, ATP 1 mM, 2 hours room temperature
Method: (§1) The compounds described in Examples above were used in the SIK1, SIK2, and SIK3 inhibition test.
(§2) The inhibitory activity of the compound for SIK1, SIK2, and SIK3 enzymes was assayed by measuring the amount of ADP, an enzyme reaction product, with ADP-Glo™ Max Assay (Promega). Enzymes, specifically, GST-tagged SIK1 (Carna Biosciences, Inc.), GST-tagged SIK2 (Carna Biosciences, Inc.), and GST-tagged SIK3 (SignalChem) were prepared in a reaction buffer (15 mM tris-hydrochloric acid buffer (pH 7.5), 0.001% Triton X-100, 0.01% BSA) so that the final concentration would be 20 nM, 3 nM, and 100 nM. Enzyme solutions were thus formed. In a reaction buffer, AMARA Peptide (SignalChem) as a substrate with a final concentration of 200 μM (SIK1, SIK2) or 100 μM (SIK3), ATP (Promega) with a final concentration of 1 mM, and magnesium chloride with a final concentration of 5 mM were prepared. Substrate solutions were thus formed. The enzyme solution, the substrate solution, and a DMSO solution of a concentration of the test compound were mixed together and reacted at room temperature for 2 hours. After the reaction, ADP-Glo™ Reagent (Promega) was added, and the reaction was performed at room temperature for 30 minutes. Subsequently, ADP-Glo™ Max Detection Reagent (Promega) was added, and the reaction was performed at room temperature for 30 minutes. The emission by the luciferase reaction was measured with PHERAstar FSX (BMG LABTECH).
(§3) The inhibitory ratio (%) was calculated by: % Inhibition={1−(intensity of sample−intensity of blank (no enzyme solution added))/(intensity of control (DMSO alone)−intensity of blank)}×100. The inhibitory concentration IC50 was calculated based on 16 data values obtained in the concentration response test.

GST-tagged SIK3 = GST-tagged SIK3 (Homo sapiens (Human), UniProt Q9Y2K2); experiment: SIK3 inhibition test (ADP-Glo Max Assay); details: enzyme 100 nM, AMARA Peptide 100 μM, ATP 1 mM, 2 hours room temperature
Method: as §1, §2, §3

GST-tagged SIK1 = GST-tagged SIK1 (Homo sapiens (Human), UniProt P57059); experiment: SIK1 inhibition test (ADP-Glo Max Assay); details: enzyme 20 nM, AMARA Peptide 200 μM, ATP 1 mM, 2 hours room temperature
Method: as §1, §2, §3

Sequence of GST-tagged SIK2 (Q9H0K1 whole entry): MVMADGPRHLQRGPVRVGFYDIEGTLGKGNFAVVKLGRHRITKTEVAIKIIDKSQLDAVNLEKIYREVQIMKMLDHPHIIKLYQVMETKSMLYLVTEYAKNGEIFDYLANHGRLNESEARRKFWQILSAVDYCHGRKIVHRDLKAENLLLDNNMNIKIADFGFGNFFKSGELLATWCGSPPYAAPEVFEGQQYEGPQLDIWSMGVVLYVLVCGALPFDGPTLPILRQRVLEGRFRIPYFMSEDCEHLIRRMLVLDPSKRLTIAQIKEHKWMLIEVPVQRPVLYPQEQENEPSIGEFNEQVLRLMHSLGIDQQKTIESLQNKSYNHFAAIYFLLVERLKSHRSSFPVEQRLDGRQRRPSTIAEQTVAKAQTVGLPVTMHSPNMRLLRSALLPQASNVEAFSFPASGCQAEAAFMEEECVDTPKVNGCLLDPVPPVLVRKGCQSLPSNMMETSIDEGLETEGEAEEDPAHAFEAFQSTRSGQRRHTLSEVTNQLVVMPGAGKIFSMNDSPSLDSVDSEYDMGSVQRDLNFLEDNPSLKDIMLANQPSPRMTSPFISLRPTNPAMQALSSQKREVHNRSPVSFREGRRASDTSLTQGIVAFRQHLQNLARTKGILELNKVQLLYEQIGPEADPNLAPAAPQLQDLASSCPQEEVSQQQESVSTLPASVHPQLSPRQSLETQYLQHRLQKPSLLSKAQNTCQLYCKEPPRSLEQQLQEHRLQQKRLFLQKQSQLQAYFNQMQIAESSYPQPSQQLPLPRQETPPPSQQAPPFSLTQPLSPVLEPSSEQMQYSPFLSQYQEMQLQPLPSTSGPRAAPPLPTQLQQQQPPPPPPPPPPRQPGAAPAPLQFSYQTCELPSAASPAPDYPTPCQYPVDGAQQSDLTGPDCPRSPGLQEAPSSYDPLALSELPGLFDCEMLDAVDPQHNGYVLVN
Sequence of GST-tagged SIK3 (Q9Y2K2 whole entry): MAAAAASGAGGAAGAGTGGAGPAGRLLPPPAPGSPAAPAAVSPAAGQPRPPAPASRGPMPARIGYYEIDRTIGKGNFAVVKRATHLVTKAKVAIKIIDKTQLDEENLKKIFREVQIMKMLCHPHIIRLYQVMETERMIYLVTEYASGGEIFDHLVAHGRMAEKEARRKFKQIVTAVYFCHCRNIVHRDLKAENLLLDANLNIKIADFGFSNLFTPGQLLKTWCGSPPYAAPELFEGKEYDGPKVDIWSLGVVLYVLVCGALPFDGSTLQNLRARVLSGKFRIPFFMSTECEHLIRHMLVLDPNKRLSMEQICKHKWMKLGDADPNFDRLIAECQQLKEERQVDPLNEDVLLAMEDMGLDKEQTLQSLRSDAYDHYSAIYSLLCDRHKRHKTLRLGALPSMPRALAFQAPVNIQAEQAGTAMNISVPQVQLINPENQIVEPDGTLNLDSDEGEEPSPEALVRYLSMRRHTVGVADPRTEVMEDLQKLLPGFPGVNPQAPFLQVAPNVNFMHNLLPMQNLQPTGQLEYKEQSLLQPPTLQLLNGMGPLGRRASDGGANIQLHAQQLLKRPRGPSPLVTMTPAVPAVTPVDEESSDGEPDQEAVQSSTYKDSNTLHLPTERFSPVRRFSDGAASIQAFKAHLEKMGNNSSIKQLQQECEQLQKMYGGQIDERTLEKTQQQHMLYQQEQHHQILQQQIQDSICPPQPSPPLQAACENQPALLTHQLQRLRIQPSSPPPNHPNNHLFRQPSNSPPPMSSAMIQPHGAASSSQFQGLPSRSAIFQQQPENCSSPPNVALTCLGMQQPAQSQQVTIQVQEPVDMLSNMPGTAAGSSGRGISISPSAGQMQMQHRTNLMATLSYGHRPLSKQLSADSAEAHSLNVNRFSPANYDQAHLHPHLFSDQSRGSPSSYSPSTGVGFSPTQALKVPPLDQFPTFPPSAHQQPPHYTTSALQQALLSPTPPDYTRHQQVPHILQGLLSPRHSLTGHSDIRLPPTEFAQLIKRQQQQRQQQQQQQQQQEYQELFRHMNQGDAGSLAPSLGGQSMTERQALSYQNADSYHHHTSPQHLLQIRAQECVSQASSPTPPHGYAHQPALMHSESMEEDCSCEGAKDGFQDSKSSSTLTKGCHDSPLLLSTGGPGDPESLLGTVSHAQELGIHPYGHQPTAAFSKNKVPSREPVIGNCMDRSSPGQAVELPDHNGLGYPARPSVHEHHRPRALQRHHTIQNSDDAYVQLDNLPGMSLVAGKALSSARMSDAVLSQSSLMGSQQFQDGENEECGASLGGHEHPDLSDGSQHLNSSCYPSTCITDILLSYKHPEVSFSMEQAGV
Sequence of GST-tagged SIK1 (P57059 whole entry): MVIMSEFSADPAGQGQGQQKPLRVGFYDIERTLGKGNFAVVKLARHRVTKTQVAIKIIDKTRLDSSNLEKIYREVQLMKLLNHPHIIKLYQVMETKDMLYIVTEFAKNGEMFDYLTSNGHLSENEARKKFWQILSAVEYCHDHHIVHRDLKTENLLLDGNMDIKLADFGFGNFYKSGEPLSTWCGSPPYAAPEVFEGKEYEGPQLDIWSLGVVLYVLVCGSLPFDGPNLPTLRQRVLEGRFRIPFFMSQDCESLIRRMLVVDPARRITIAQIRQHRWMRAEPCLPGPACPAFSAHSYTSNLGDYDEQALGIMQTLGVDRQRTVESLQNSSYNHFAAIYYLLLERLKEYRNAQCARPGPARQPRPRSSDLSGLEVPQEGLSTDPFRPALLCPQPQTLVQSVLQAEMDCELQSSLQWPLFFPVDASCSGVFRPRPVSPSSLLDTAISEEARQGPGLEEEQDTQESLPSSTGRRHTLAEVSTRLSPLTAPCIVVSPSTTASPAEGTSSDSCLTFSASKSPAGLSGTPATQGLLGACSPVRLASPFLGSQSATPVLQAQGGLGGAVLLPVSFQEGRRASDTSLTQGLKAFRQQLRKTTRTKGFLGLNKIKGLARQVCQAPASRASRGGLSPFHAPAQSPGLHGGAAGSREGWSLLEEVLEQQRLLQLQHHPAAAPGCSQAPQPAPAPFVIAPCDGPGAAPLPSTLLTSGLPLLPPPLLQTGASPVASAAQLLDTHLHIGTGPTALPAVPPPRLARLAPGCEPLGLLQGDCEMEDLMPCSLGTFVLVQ

Structure (SMILES) | pIC50 (GST-tagged SIK2) | pIC50 (GST-tagged SIK3) | pIC50 (GST-tagged SIK1)
COc1cc(-c2c3c(C#N)cc(-c4cnn(C)c4)cc3nn2C)cc(OC(F)F)c1C(=O)NC[C@@H]1CC1(F)F (single isomer, unassigned) [Example 46] | 8.28 | 8.14 | 7.83
COc1cc(-c2c3c(C#N)cc(-c4cnn(CC(C)(C)O)c4)cc3nn2C)cc(OC(F)F)c1C(=O)NC[C@@H]1CC1(F)F (single isomer, unassigned) [Example 86] | 7.88 | 7.71 | 7.86
COc1cc(-c2c3c(C#N)cc(-c4cnn(C)c4)cc3nn2C)cc2c1C(=O)NC[C@@H]2C (single isomer, unassigned) [Example 88] | 8.35 | 8.28 | 8.13
COc1cc(-c2c3c(C#N)cc(-c4cnn(C[C@H](C)O)c4)cc3nn2C)cc(OC(F)F)c1C(=O)NC[C@@H]1CC1(F)F (single isomer, unassigned) [Example 95, 4-[4-cyano-6-[1-[(2S)-2-hydroxypropyl]pyrazol-4-yl]-2-methylindazol-3-yl]-N-[[(1R*)-2,2-difluorocyclopropyl]methyl]-2-(difluoromethoxy)-6-methoxybenzamide] | 7.88 | 8.24 | 7.80
CCn1cc(-c2cc(C#N)c3c(-c4cc(OC)c5c(c4)[C@@H](C)CNC5=O)n(C)nc3c2)cn1 (single isomer, unassigned) [Example 105] | 8.47 | 8.09 | 8.00
COCCn1cc(-c2cc(C#N)c3c(-c4cc(OC)c5c(c4)[C@@H](C)CNC5=O)n(C)nc3c2)cn1 (single isomer, unassigned) [Example 127] | 8.89 | 8.12 | 8.16
COc1cc(-c2c3c(C#N)cc(-c4cnn(C(F)F)c4)cc3nn2C)cc2c1C(=O)NC[C@@H]2C (single isomer, unassigned) [Example 128] | 9.00 | 8.18 | 8.09
COc1cc(-c2c3c(OC(F)F)cc(-c4cnn(C)c4)cc3nn2C)cc2c1C(=O)NC[C@@H]2C (single isomer, unassigned) [Example 164] | 8.70 | 7.71 | 8.15
COc1cc(-c2cnn(C)c2)cc2nn(C)c(-c3cc(OC(F)F)c4c(c3)[C@@H](C)CNC4=O)c12 (single isomer, unassigned) [Example 165] | 8.82 | 8.17 | 8.28
COc1cc(-c2cnn(C)c2)cc2nn(C)c(-c3cc(OC(F)F)c4c(c3)[C@@H](C)CNC4=O)c12 (single isomer, unassigned) [Example 166] | 8.51 | 8.02 | 7.92

Further molecules by rising pIC50 (GST-tagged SIK2), results first:

pIC50 (GST-tagged SIK2) | pIC50 (GST-tagged SIK3) | pIC50 (GST-tagged SIK1) | Structure (SMILES)
8.15 | 8.07 | 8.00 | COc1cc(-c2c3c(C#N)cc(-c4cnn(CCN5CCOCC5)c4)cc3nn2C)cc(OC(F)F)c1C(=O)NC[C@@H]1CC1(F)F (single isomer, unassigned) [Example 85]
8.40 | 8.10 | 8.08 | COc1cc(-c2c3c(C#N)cc(-c4cnn(CC(F)F)c4)cc3nn2C)cc2c1C(=O)NC[C@@H]2C (single isomer, unassigned) [Example 107]
8.77 | 8.39 | 8.07 | COc1cc(-c2c3c(C#N)cc(-c4cnn(C(C)C)c4)cc3nn2C)cc2c1C(=O)NC[C@@H]2C (single isomer, unassigned) [Example 167]
8.82 | 8.29 | 8.14 | COc1cc(-c2c3c(C#N)cc(-c4cnn(CC(F)(F)F)c4)cc3nn2C)cc2c1C(=O)NC[C@@H]2C (single isomer, unassigned) [Example 126]
8.85 | 7.94 | 8.29 | CCOc1cc(-c2cnn(C)c2)cc2nn(C)c(-c3cc(OC)c4c(c3)[C@@H](C)CNC4=O)c12 (single isomer, unassigned) [Example 163]
8.85 | 8.57 | 8.17 | CCCCn1cc(-c2cc(C#N)c3c(-c4cc(OC)c5c(c4)[C@@H](C)CNC5=O)n(C)nc3c2)cn1 (single isomer, unassigned) [Example 168]

Source: patent US20260062387A1, “SALT-INDUCIBLE KINASE INHIBITOR COMPOUND AND PHARMACEUTICAL COMPOSITION INCLUDING THE SAME” (MITSUBISHI TANABE PHARMA CORPORATION, priority 2023, published 2026)
